From patent US8404728B2 (priority 2009, dated 2013)
Counter-ions that a name gives are not always drawn. Like-named read-outs stand apart in the source and are kept apart here.

Legend:
BoNTAe = BoNTAe (Clostridium botulinum, UniProt P0DPI0); assay: biochemical; conditions: for inhibition at 1 µM: read-out: % inhibition of BoNTAe; for inhibition at 20 µM: inhibitor concentration 20 μM
[1] = molecular target: botulinum neurotoxin serotype A (Clostridium botulinum, UniProt P0DPI0); set-up: species or system Balb/c mice; conditions: mouse, in vivo, ip
[2] = mouse, in vivo, ip, 2 mg/kg; for AUClast / Cmax / Vd: Balb/c
in vivo = conditions: Balb/c, mouse, ip, 2 mg/kg

Chain of BoNTAe (P0DPI0 2-448 limits assumed): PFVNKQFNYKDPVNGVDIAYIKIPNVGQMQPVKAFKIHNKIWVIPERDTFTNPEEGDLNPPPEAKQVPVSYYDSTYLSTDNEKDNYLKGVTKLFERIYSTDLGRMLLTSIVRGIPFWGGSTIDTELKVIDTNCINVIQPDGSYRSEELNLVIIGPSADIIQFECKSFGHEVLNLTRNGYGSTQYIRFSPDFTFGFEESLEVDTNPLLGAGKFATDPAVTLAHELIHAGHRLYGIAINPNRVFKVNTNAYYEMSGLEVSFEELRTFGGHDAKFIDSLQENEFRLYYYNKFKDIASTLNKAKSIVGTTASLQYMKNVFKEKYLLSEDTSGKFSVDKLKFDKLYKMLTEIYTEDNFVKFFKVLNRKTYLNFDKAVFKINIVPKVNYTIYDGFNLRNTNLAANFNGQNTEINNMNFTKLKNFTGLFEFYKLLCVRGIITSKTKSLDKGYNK
Chain of botulinum neurotoxin serotype A (P0DPI0 whole entry, looked up): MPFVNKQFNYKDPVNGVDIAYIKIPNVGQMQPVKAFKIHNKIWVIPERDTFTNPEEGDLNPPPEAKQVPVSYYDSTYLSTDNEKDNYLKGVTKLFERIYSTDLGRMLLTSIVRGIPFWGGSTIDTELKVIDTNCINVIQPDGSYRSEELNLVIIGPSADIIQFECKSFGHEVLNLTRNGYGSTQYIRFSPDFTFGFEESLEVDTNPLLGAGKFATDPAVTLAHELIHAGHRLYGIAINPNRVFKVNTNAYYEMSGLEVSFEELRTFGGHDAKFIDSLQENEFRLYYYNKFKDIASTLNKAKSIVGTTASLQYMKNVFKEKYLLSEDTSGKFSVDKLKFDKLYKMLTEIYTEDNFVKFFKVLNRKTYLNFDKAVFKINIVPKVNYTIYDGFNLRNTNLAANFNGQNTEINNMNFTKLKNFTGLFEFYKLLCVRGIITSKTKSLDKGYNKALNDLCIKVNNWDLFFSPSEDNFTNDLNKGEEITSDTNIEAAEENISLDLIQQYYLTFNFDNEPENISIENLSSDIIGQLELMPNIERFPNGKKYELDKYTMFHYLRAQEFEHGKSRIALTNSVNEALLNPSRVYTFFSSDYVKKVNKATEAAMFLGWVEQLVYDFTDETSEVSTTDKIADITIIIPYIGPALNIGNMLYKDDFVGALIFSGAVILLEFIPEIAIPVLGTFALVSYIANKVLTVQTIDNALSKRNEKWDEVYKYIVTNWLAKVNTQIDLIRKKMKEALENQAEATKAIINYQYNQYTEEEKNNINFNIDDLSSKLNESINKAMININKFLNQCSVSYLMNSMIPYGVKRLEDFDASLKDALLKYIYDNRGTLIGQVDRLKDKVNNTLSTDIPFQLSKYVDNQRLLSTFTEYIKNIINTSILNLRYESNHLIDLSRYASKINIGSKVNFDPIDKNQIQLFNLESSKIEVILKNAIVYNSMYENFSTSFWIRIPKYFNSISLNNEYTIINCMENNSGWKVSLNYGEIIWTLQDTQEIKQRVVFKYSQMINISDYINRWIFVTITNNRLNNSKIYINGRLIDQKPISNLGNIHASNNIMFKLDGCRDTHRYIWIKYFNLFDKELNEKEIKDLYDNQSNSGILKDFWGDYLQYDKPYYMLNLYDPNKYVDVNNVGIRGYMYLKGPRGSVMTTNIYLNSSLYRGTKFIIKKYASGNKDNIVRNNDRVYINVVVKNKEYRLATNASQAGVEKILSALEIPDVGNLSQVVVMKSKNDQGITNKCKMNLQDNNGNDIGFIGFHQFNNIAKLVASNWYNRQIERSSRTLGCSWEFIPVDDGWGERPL

Row | Structure (SMILES) | Ki (BoNTAe) | inhibition at 1 µM (BoNTAe) | inhibition at 1 µM (BoNTAe; inhibitor concentration 1 μM) | further results
1 | NCCCCCCCCCCCCN(CCCCCCCCCCCCN)C(=O)c1ccc(-c2cc3ccc(C(=O)c4cc(CC(=O)NO)c(-c5cccc(O)c5)s4)cc3n2CCCCN)cc1 [Inhibitor E1e] | 360 nM | 49% |  | 
2 | O=C(CCc1cc(C(=O)Nc2cc(CCCCCCN3C(=O)c4ccccc4C3=O)c(OCCCCCCN3C(=O)c4ccccc4C3=O)c(CCCCCCN3C(=O)c4ccccc4C3=O)c2)n(Cc2ccccc2)c1C#CC(O)(c1ccccc1)c1ccccc1)NO [Inhibitor E6, 1-Benzyl-N-(3,5-bis(6-(1,3-dioxoisoindolin-2-yl)hexyl)-4-(6-(1,3-dioxoisoindolin-2-yl)hexyloxy)phenyl)-5-(3-hydroxy-3,3-diphenylprop-1-ynyl)-4-(3-(hydroxyamino)-3-oxopropyl)-1H-pyrrole-2-carboxamide trifluoroacetic acid salt] |  |  | 50 ± 2% | 
3 | NCCCCCCCN(CCCCCCCN)C(=O)c1cc(CCC(=O)NO)c(CCC(CO)(c2ccccc2)c2ccccc2)n1Cc1ccccc1 [Inhibitor E4b, N,N-Bis(7-aminoheptyl)-1-benzyl-5-(4-hydroxy-3,3-diphenylbutyl)-4-(3-(hydroxyamino)-3-oxopropyl)-1H-pyrrole-2-carboxamide] | 210 nM |  | 79 ± 1% | 
4 | NCCCCCN(CCCCCN)C(=O)c1ccc(-c2cc3ccc(C(=NO)c4cc(CC(=O)NO)c(-c5cccc(O)c5)s4)cc3n2CCCCN)cc1 [Inhibitor E1g] |  | 48% |  | 
5 | NCCCCCCCCCCCN(CCCCCCCCCCCN)C(=O)c1ccc(-c2cc3ccc(C(=O)c4cc(CC(=O)NO)c(-c5cccc(O)c5)s4)cc3n2CCCCN)cc1 [Inhibitor E1d] | 340 nM | 68 ± 1% |  | 
6 | O=C(CCc1cc(C(=O)Nc2cc(CCCCCCN3C(=O)c4ccccc4C3=O)c(OCCCCCCCN3C(=O)c4ccccc4C3=O)c(CCCCCCN3C(=O)c4ccccc4C3=O)c2)n(Cc2ccccc2)c1C#CC(O)(c1ccccc1)c1ccccc1)NO [Inhibitor E6b, 1-Benzyl-N-(3,5-bis(6-(1,3-dioxoisoindolin-2-yl)hexyl)-4-(7-(1,3-dioxoisoindolin-2-yl)heptyloxy)phenyl)-5-(3-hydroxy-3,3-diphenylprop-1-ynyl)-4-(3-(hydroxyamino)-3-oxopropyl)-1H-pyrrole-2-carboxamide trifluoroacetic acid salt] |  |  | 59 ± 2% | 
7 | NCCCCCCN(CCCCCCN)C(=O)c1ccc(-c2cc3ccc(C(=NO)c4cc(CC(=O)NO)c(-c5cccc(O)c5)s4)cc3n2CCCCN)cc1 [Inhibitor E1f, 4-(1-(4-aminobutyl)-6-((4-(2-(hydroxyamino)-2-oxoethyl)-5-(3-hydroxyphenyl)thiophen-2-yl)(hydroxyimino)methyl)-1H-indol-2-yl)-N,N-bis(6-aminohexyl)benzamide] |  |  | 47 ± 1% | 
8 | NCCCCCCCN(CCCCCCCN)C(=O)c1cc(CCC(=O)NO)c(CCC(O)(c2ccccc2)c2ccccc2)n1Cc1ccccc1 [Inhibitor E4] | 760 nM |  | 52 ± 1% | 
9 | NCCCCCCCCCCN(CCCCCCCCCCN)C(=O)c1ccc(-c2cc3ccc(C(=O)c4cc(CC(=O)NO)c(-c5cccc(O)c5)s4)cc3n2CCCCN)cc1 [Inhibitor E1c, 4-(1-(4-aminobutyl)-6-(4-(2-(hydroxyamino)-2-oxoethyl)-5-(3-hydroxyphenyl)thiophene-2-carbonyl)-1H-indol-2-yl)-N,N-bis(10-aminodecyl)benzamide] | 260 nM |  | 75 ± 1% | 
10 | NCCCCn1c(-c2ccccc2)c(F)c2ccc(C(=O)c3cc(CC(=O)NO)c(-c4cccc(N)c4)s3)cc21 [Inhibitor E3, 2-(5-(1-(4-aminobutyl)-3-fluoro-2-phenyl-1H-indole-6-carbonyl)-2-(3-aminophenyl)thiophen-3-yl)-N-hydroxyacetamide] |  |  |  | inhibition at 20 µM (BoNTAe): 47 ± 1%; proportion of survivors [1]: significantly (p<0.05) increased the proportion of survivors; AUClast [2]: 1385.93 ng·h/mL; Cmax [2]: 255.99 ng/mL; Vd [2]: 12.84 L/kg; T1/2 [2]: 6.25; Tmax (in vivo): 60 min
11 | NCCCCCCCCCOc1c(CCCCCCN)cc(NC(=O)c2cc(CCC(=O)NO)c(CCC(N)(c3ccccc3)c3ccccc3)n2Cc2ccccc2)cc1CCCCCCN [Inhibitor E6c] |  | 55 ± 2% |  | 
12 | NCCCCn1c(-c2ccccc2)c(F)c2ccc(C(=O)c3cc(CC(=O)NO)c(-c4ccc(O)cc4)s3)cc21 [Inhibitor E2, 2-(5-(1-(4-Aminobutyl)-3-fluoro-2-phenyl-1H-indole-6-carbonyl)-2-(4-hydroxyphenyl)thiophen-3-yl)-N-hydroxyacetamide] |  |  |  | inhibition at 20 µM (BoNTAe): 82 ± 6%; proportion of survivors [1]: significantly (p<0.05) increased the proportion of survivors; AUClast [2]: 1386.4 ng·h/mL; Cmax [2]: 738.4 ng/mL; Vd [2]: 14.95 L/kg; T1/2 [2]: 6.5; Tmax (in vivo): 30 min
13 | NCCCCCCCCN(CCCCCCCCN)C(=O)c1ccc(-c2cc3ccc(C(=NO)c4cc(CC(=O)NO)c(-c5cccc(O)c5)s4)cc3n2CCCCN)cc1 [Inhibitor E1h] |  | 60 ± 1% |  | 
